Measurements published in US7029915B2, “Method for differentiating rat hepatic stem cells to insulin-producing cells” (University of Florida Research Foundation, Inc., priority 2002, dated 2006).

Tests used:
[1] = test system: trans-differentiated hepatic stem cells; experiment: Insulin content and secretion by immunoprecipitation and Western blotting; type: cell-based, rat
Protocol: Measurement of insulin content and secretion by immunoprecipitation and Western blotting. Confluent cultures of trans-differentiated hepatic stem cells were maintained in RPMI 1640 plus 10% fetal calf serum in the presence or absence of 10 mM nicotinamide for 7 days. The cells were then switched to serum-free medium containing 0.5% BSA for 5 hrs, washed twice with serum-free medium, then stimulated with an additional 17.5 mM glucose for 2 hrs. The culture medium was collected and stored at −70° C. for assay of secreted insulin. Intracellular insulin was extracted with lysis buffer. The presence of insulin in the culture media and cell lysates was determined by immunoprecipitation with anti-rabbit-insulin polyclonal antibodies (Santa Cruz Biotechnology), followed by separation of the precipitated material by 18% SDS-PAGE, transfer to nylon membrane, and blotting with anti-insulin antibodies as described (Yang, et al., J. Biol. Chem. 269:7156–7162, 1994). Cell lysates (150 μg) or culture media (1 ml) from each culture were used for the immunoprecipitation. Normal rabbit serum was used as primary antibody control, and culture medium containing 0.5% BSA was used as a control for secreted insulin measurements. […] Insulin content in cells and in the media was determined by pooling cell lysates and culture medium from three separate cultures.

hepatic stem cells = experiment: Morphology of spheroid cell clusters in high-glucose hepatic stem cell cultures; type: cell-based, rat; conditions: five to seven days in 10 mM nicotinamide, high glucose (23 mM) culture
Protocol: To induce trans-differentiation, the cells were replated and cultured in RPMI 1640 medium supplemented with 10% FCS and 17.5 mM (23 mM final concentration) glucose. After about two months, scattered small spheroid cell clusters began to form on top of the confluent cell monolayer. Individual spheroids from these cell cultures were selected for clonal passage and were subjected several times to the high glucose (23 mM) culturing process described above. The resultant cells reached confluence, and by day 14 formed additional clusters when maintained under the high glucose conditions. […] Multiple clusters also became connected by duct-like structures.

## NC(=O)c1cccnc1 [nicotinamide]
[1]; 10 mM nicotinamide for 7 days before stimulation with additional 17.5 mM glucose for 2 hrs, cell lysates
  increase of insulin in cell lysates versus untreated cells (densitometric analysis): 3.4 times
[1]; growth in nicotinamide before glucose stimulation, Western blot, FIG. 2
  levels of insulin detected in cell lysates and secreted into culture medium: increased
Hepatic stem cells
  number and dimension of spheroid cell clusters: markedly increased
